Measured values: US20210290593A1, “USE OF SUSTAINED-RELEASE 5-HYDROXYTRYPTOPHAN IN TREATING GASTROINTESTINAL DISORDERS” (Duke University, priority 2018, published 2021)
Entries after “also recorded” stand apart in the source; their conditions may differ. Where two headings read alike, the source gives them in different places.

What was measured:
[1] = after administration of exogenous 5-HTP; cited from earlier work
[2] = test system: isolated colon of WT and R439H mice; assay: Colonic migrating motor complexes (CMMC) measured in vitro; design: species or system mouse
Protocol: The entire colon (5-6 cm) was removed and mounted to allow spontaneous motor patterns to be video-imaged for the construction of spatiotemporal maps (Roberts et al, 2008; Roberts et al, 2007). The isolated colon was incubated in Krebs' solution until endogenous fecal pellets were expelled. The empty colon was cannulated at both ends, mounted in a horizontal organ bath, and both luminal and serosal compartments were superfused with oxygenated Krebs' solution at 35° C. The height of a reservoir connected to the oral cannula was adjusted to maintain intraluminal pressure at +2 cm HO. The anal cannula provided a maximum of 2 cm of back-pressure. The contractile activity was imaged with a Logitech Quickcam pro camera positioned 7-8 cm above the gut. Preparations were equilibrated for 30 min and four 15 min videos were captured. Spatiotemporal maps of the diameter at each point along the proximo-distal length of colon were constructed and used to quantify the frequency of CMMCs as well as the velocity and length of their propagation (Margolis et al, 2016b; Welch et al, 2014). CMMCs were defined as constrictions of the diameter of the bowel that propagated for at least 50% of the length of the preparations. For studies utilizing IR 5-HTP, a dose response curve was conducted whereby the isolated colons were exposed to concentrations of 5-HTP ranging from 1 to 10 μM, both intraluminally and extraluminally.

WT and R439H mice [3] = assay: Total gastrointestinal transit time (oral carmine red); format: in vivo, mouse; conditions: 30 mg/kg intraperitoneal
Protocol: Carmine red (300 μl; 6%; Sigma-Aldrich) suspended in 0.5% methylcellulose, which cannot be absorbed, was administered by gavage to study total GI transit time. Total GI transit time was considered as the interval between gavage and the appearance of carmine red in stool (Kimball et al, 2005).

Water solubility = format: physicochemical; conditions: free base
[4] = one rodent study; cited from earlier work
animals = assay: Colonic motility, prucalopride vs 5-HTP; format: in vivo; conditions: in animals
Source text: FIG. 9. Colonic motility. Effect of prucalopride vs 5-HTP.

WT and R439H mice [5] = assay: Colonic propulsion (glass bead expulsion time); format: in vivo, mouse
Protocol: Mice were anesthetized with isoflurane (Baxter Pharmaceutical Products) and a glass bead (3 mm in diameter) was pushed with a fire-polished glass rod through the anus into the colon to a distance of 2 cm from the anal verge (Li et al, 2006). The time required for the mice to expel the bead was determined and used to estimate in vivo colorectal propulsion.

[6] = Human 5-HTP gastrointestinal regional absorption study (plasma 5-HTP); format: in vivo; conditions: for bioavailability: read-out: Absolute bioavailability F; for Cmax: read-out: Maximal average 5-HTP plasma (CMax) levels
Protocol: Determination of absolute and regional intestinal bioavailability of 5-HTP in humans.
The free base form of 5-HTP was used (5-HTP has a water solubility of >10 mg/mL).
Colonic: 5-HTP free base saline solution 200 mg.
Intravenous: 5-HTP free base saline solution 50 mg.
Oral/Upper GI: Two 5-HTP gelatin tablets of 100 mg 5-HTP free base (200 mg total dose).
Healthy male and female volunteers aged 18 to 65 years with a body mass index (BMI) of 19 to 28 were eligible for the study. Subjects were admitted to the investigational medical unit (IMU) 2 h before 5-HTP administration and remained at the IMU for 24 h following, for blood sampling and safety assessment.
All subjects (n=12) received 5-HTP mg on 3 occasions. (1) Intra-colonic 200 mg 5-HTP solution by colonoscopy. (2) Intravenous 50 mg (IV). (3) Upper GI (oral) 5-HTP 200 mg. At least 6 days passed between each visit.
Plasma samples were collected over 24-hours after 5-HTP administration. Plasma samples were stored at −80° C. until analysis. 5-HTP and the metabolite 5-hydroxyindole-acetic-acid (5-HIAA) were quantified by liquid chromatography with mass-spectrometry detection.
The PK data were analyzed using noncompartmental (NCA) and compartmental (mixed effects) mathematical modelling approaches, to calculate area 5-HTP plasma under the curve (AUC) for each subject for each 5-HTP administration.
From FIG. 10, the area under the curve (AUC) for each route of administration was obtained, which was then used to calculate the absolute bioavailability (F) of the oral and colon routes of administration. For example, the formula for calculating F for a drug administered by the oral route (po) is given below (D is dose): […]

mice = assay: Morphine-induced constipation (colonic motility); format: in vivo, mouse
Source text: FIG. 8. Morphine-induced constipation and reversal by 5-HTP in mice.

R439H mice = conditions: cited from earlier work

In the case of N[C@@H](Cc1c[nH]c2ccc(O)cc12)C(=O)O [5-HTP, 5-hydroxytryptophan], the “5-HTP plasma levels needed to produce systemic pharmacological effects” value [1] is listed as “over 100 ng/ml”, the CMMC frequency ([2]; R439H colon, extraluminal 1 μM) is listed as 0.78±0.18 CMMC/min and the CMMC velocity ([2]; R439H colon, extraluminal 1 μM) is listed as 3.2±0.2 mm/s. For the same compound, the CMMC frequency ([2]; R439H colon, intraluminal 1 μM) was 1.02±0.10 CMMC/min, the CMMC velocity ([2]; R439H colon, intraluminal 1 μM) was 2.7±0.2 mm/s and the CMMC frequency ([2]; WT colon, extraluminal 1 μM) was 0.60±0.20 CMMC/min. For the same compound, the CMMC velocity ([2]; WT colon, extraluminal 1 μM) was 1.4±0.5 mm/s, the CMMC frequency ([2]; WT colon, intraluminal 1 μM) was 0.90±0.06 CMMC/min and the CMMC velocity ([2]; WT colon, intraluminal 1 μM) was 2.3±0.2 mm/s. For the same compound, the “Total in vivo GI transit time” value (WT and R439H mice [3]) was 74.9 ± 19.5 min, the solubility (Water solubility) was over 10000 µg/mL and the “Absorption by the colon vs the upper intestine” value [4] was “absorbed equally well by the colon and the upper intestine”. For the same compound, the “Efficacy (maximal effect) on colonic motility compared to prucalopride” value (animals) was “higher efficacy”, the “Potency on colonic motility compared to prucalopride” value (animals) was “higher potency; also recorded: more potent than prucalopride at lower doses” and the “Time of colonic bead expulsion” value (WT and R439H mice [5]; 30 mg/kg intraperitoneal) was 7.2 ± 1.6 min. For the same compound, the “Time of colonic bead expulsion” value (WT and R439H mice [5]; 100 mg/kg intraperitoneal) was 5.2 ± 1.6 min, the “Absorption in upper intestine compared to colon” value [6] was 5 times and the AUC ([6]; both sexes, plasma, intravenous dosing 50 mg) was 2040 ng·h/mL. The bioavailability ([6]; both sexes, plasma, oral 200 mg (upper GI tract)) was 20%, the AUC ([6]; both sexes, plasma, oral dosing 200 mg) was 1500 ng·h/mL and the Cmax ([6]; both sexes, plasma, other: intra-colonic by colonoscopy, 200 mg, intra-colonic 200 mg) was 40 to 50 ng/mL. For the same compound, the AUC ([6]; both sexes, plasma, other: intra-colonic by colonoscopy, colonic dosing 200 mg) was 312 ng·h/mL, the bioavailability ([6]; both sexes, plasma, other: intra-colonic by colonoscopy, intra-colonic 200 mg) was 4% and the Relative upper GI:colon bioavailability ([6]; both sexes, plasma, other: upper GI (oral) and intra-colonic compared, 200 mg, read-out: Relative upper GI tract:colon bioavailability (RBA)) was 20%. For the same compound, the Cmax ([6]; both sexes, plasma, po, 200 mg, oral 200 mg) was 370 ng/mL, the “Maximal average 5-HTP plasma (CMax) levels” value ([6]; intra-colonic 200 mg) was 47 ng/mL and the “Colonic motility, 5-HTP by itself” value (mice; 5-HTP 30 mg/kg) was “enhanced colonic motility”. For the same compound, the “Effect on morphine-induced constipation (colonic motility)” value (mice; 5-HTP 30 mg/kg with morphine 10 mg/kg) was “reversed the morphine-induced constipation”.
With CN1CC[C@]23c4c5ccc(O)c4O[C@H]2[C@@H](O)C=C[C@H]3[C@H]1C5 [Morphine, reference compound] the Colonic motility (mice; morphine 10 mg/kg) was “induced constipation, as determined by slowed colonic motility”.
In the case of CNCCC(Oc1ccc(C(F)(F)F)cc1)c1ccccc1 (stereo not shown) [fluoxetine], the “CNS 5-HT levels” value (R439H mice) is given as “further decline in CNS 5-HT levels” and the Depressive behaviors (R439H mice) is given as “worsened their depressive behaviors”.
